Patent US8022105B2, “Prevention of neutrophil recruitment” (The Brigham and Women's Hospital, Inc., priority 1999, dated 2011)
“Also recorded” adds a separate entry of the source. Like-named read-outs stand apart in the source and are kept apart here.

How the values were obtained:
[1] = Biostability in human whole blood; type: in vitro ADME
[2] = Biostability of LX analogs in mouse whole blood; conditions: incubated 3 h at 37° C., LC/MS/MS
Protocol: (§1) LXA4 (21 mM) was incubated ex vivo in mouse whole blood for 3 h. […] (B) Biostability of LXA4 and stable analogs in mouse whole blood. LXA4, 15(R/S)-methyl-LXA4 (ATLa1, which carries a racemic methyl group at C-15), and 15-epi-16-(para-fluoro)-phenoxy-LXA4(ATLa2, in which a bulky (para-fluoro)-phenoxy group replaces the w-chain at C-16) were added (see Methods) to heparinized mouse whole blood and incubated at 37° C. for 0 and 3 h. Following centrifugation at 800×g and 0° C., the plasma supernatants were drawn off and stopped in two volumes of ice cold methanol. The lipoxins were extracted by solid phase methodology and quantitated by LC/MS/MS. Values represent means±SEM (n=3-4).
(§2) Biostability of LX analogs in mouse whole blood. […] The methyl formate fractions were taken to dryness with a gentle stream of nitrogen and suspended in methanol for injection and quantitative analyses by UV spectrophotometry and LC/MS/MS.
(§3) LC/MS/MS analyses. […] Samples were suspended in methanol and injected into the HPLC component, which consisted of a SpectraSYSTEM P4000 (Thermo Separation Products, San Jose, Calif.) quaternary gradient pump, a Prodigy octadecylsilane-3 (100×2 mm, 5 mm) column (Phenomenex, Torrance, Calif.) or a LUNA C18-2 (150×2 mm, 5 mm) column, and a rapid spectra scanning SpectraSYSTEM UV2000 (Thermo Separation Products, San Jose, Calif.) UV/VIS absorbance detector. […]

isolated rat aorta = test: Relaxation of pre-contracted isolated rat aorta; set-up: relaxation as % of the level of relaxation caused by Iloprost: dose or concentration left out as unconfirmed; conditions: for relaxation of smooth muscle: aorta pre-contracted with U46619 (25 ng/ml)
Protocol: Rats were euthanized with pentobarbital overdoses. The aorta was isolated and a pre-load of 300-400 mg given. The vessels were pre-contracted with U46619 (25 ng/ml). Relaxation was induced with addition of Iloprost, 5(R/S)-methyl-LXB4, ATLa1, or ATLa2 to a final concentration of […]. Aorta smooth muscle relaxation was measured with a force transducer and the data digitized and stored on a PC. 5(R/S)-methyl -LXB4, ATLa1, and ATLa2 caused 42.8%, 37.0%, 38.1%, and 40.0% relaxation of smooth muscle, respectively. Values represent±SEM (n=4-6).
For example, topical administration of LXA4 ([…]) induces arteriolar dilation in the hamster cheek with no change in venular diameters while systemic delivery into rats produces a vasoconstrictor response in the mesenteric bed (26). In addition, 20 min infusion of 1 or 2 mg/kg LXA4 induces renal vasorelaxation in rats without changing mean arterial pressure (27). To determine whether the increased stability of ATLa2 enhances potential vasoreactivity at the therapeutic dose found to inhibit PMN infiltration in FIGS. 2 and 5, vascular changes in response to ATLa2 were compared directly to those of Iloprost, a prostacyclin stable analog that rapidly stimulates arterial vasodilation (Grant, S. M. & Goa, K. L. (1992) Drugs 43, 899-924). Added to organ baths, ATLa2 relaxed precontracted isolated rat aorta to ˜40% of the level of relaxation caused by equimolar treatment ([…]) with Iloprost (not shown). […] In sharp contrast, injection of equimolar quantities of Iloprost elicited a maximum mean decrease of ˜28 mmHg ˜50 s post-injection, with pressure returning to baseline after ˜8 min.

[3] = system: TNF-a-induced PMN infiltration; test: TNF-a-induced PMN infiltration into mouse dorsal air pouch; type: in vivo; set-up: toxicity to the mice: dose or concentration left out as unconfirmed; conditions: for inhibition of TNF-a-induced PMN infiltration, local air pouch delivery: local into air pouch prior to TNF-a (20 ng/mouse), ATLa2 and dexamethasone, ASA 1.0 mg/mouse
Protocol: When injected locally into the air pouch, following injection of vehicle (900 ml PBS), murine TNF-a (20 ng/100 ml PBS) induced the infiltration of 4.8±1.1×10^6 PMN by 4 h. Dexamethasone (10 mg/air pouch), ASA (1 mg/air pouch), and ATLa2 (10 mg/air pouch) were locally administered in 900 ml PBS and prior to TNF-a. Systemic delivery of ATLa2 was by i.v. injection into the mouse tail vein (10 mg/mouse). 2.1±0.7×105 PMN were found in the air pouch 4 h after injection of vehicle (1 ml sterile PBS) alone. Values represent mean±SEM (n=3-5). *P<0.05, †P<0.15 Student's two-tailed t-test
PMN infiltration into mouse air pouch. While male BALB/c mice (6-8 wk) were anesthetized with isoflurane, dorsal air pouches were raised by injecting 3 ml of sterile air subcutaneously on days 0 and 3 (as in ref.) (Sin, Y. M., Sedgwick, A. D., Chea, E. P. & Willoughby, D. A. (1986) Ann. Rheum. Dis. 45, 873-877). On day 6 and while the mice were anesthetized with isoflurane, 10 mg of ATLa2 was delivered as a bolus injection into either the tail vein in 100 ml of sterile 0.9% saline or locally into the air pouch in 900 ml of PBS −/− (Dulbecco's Phosphate Buffered Saline without magnesium or calcium ions, BioWhittaker, Walkersville, Md.). Dexamethasone and ASA (Sigma Chemical Co., St. Louis, Mo.) were delivered locally as 10 mg and 1.0 mg doses in 900 ml of PBS −/−, respectively. Inflammation in the air pouch was induced by local injection of recombinant murine TNF-a (20 ng) (Boehringer Mannheim, Indianapolis, Ind.) dissolved in 100 ml of sterile PBS. While the mice were anesthetized with isoflurane, the air pouches were lavaged twice with 3 ml of sterile PBS 4 h after the initial TNF-a injection. Aspirates were centrifuged at 2000 rpm for 15 min at 23° C. The supernatants were removed and the cells were suspended in […] of PBS. Aliquots of the cell suspension were stained with Trypan Blue and enumerated by light microscopy. 50 ml of the resuspended aspirate cells were added to 150 ml of 30% BSA and centrifuged onto microscope slides at 2200 rpm for 4 min using a Cytofuge (StatSpin, Norwood, Mass.). Slides were allowed to air dry and were stained with Wright Giemsa stain (Sigma Chemical Co., St. Louis, Mo.) for determination of differential leukocyte counts. For microscopic analysis, tissues were obtained with a 6 mm tissue biopsy punch (Acu-Punch, Acuderm, Inc., Ft. Lauderdale, Fla.) and fixed in 10% buffered formaldehyde. Samples were then embedded in paraffin, sliced, and stained with hematoxylin-eosin.

[4] = Methyl ester hydrolysis of ATLa2 to free acid in ex vivo mouse whole blood; type: in vitro ADME; conditions: within 10-15 minutes, 2.8 μM in mouse whole blood
Protocol: FIG. 7 represents methyl ester hydrolysis of ATLa2 to free acid in ex vivo mouse whole blood. ATLa2 was incubated ex vivo in mouse whole blood (2.8 μM) for 0, 2, 5, 10, 15, or 180 minutes. The incubations were stopped by chilling the blood on ice for one minute followed by centrifugation (800×g) at 0° C. The plasma supernatant was stopped in 2 vol of ice cold methanol. The samples were prepared for analysis by solid phase extraction and the amount of free acid in the sample was quantiitated by LC/MS/MS. Within 10-15 minutes, 100% of the ATLa2 methyl ester is hydrolyzed to the free acid without loss of compound. Values represent mean±SEM (n=3).

[5] = male, BALB/c, 3 h, 2.4 mM
Protocol: as §1, §2, §3

[6] = Mouse arterial pressure after tail vein injection; type: in vivo; set-up: maximum mean decrease in arterial pressure: dose or concentration left out as unconfirmed
Protocol: Mouse arterial pressure was monitored with a pressure transducer via the cannulated carotid artery. […] 10 mg of ATLa2 were injected into 3 mice with no change in mean arterial pressure. Values represent mean±SEM (n=3). Arterial pressure. Male BALB/c mice (6-8 wk, 20 g) were anesthetized with pentobarbital (80 mg/kg). The trachea was isolated and a small polyethylene catheter (PE50) was introduced to maintain a patent airway. The right carotid artery was isolated and cannulated with PE 10 tubing filled with heparinized (10 units/ml) normal saline. The arterial catheter was connected to a pressure transducer (World Precision Instruments, Sarasota, Fla.) and the arterial pressure tracing was recorded continuously (Astromed MT95K2, West Warwick, R.I.). All surgical manipulations were performed using a surgical microscope (Carl Zeiss, Inc., Thomwood, N.Y.).

[7] = system: LTB4-induced PMN infiltration; conditions: added topically, in vivo; cited from earlier work

Q: What does the source list for CCCCCC(C)(O)/C=C/C=C\C=C\C=C\[C@@H](O)[C@@H](O)CCCC(=O)O (mixture of isomers) [ATLa1, 15(R/S)-methyl-LXA4]?
A: biostability in human whole blood compared with mouse whole blood [1]: quantitatively similar results; remaining / recoverable in mouse whole blood [2]: ~90%; relaxation of smooth muscle (isolated rat aorta): 38.1%

Q: Which “relaxation of smooth muscle” value (isolated rat aorta) does the source give for CCCCCC(O)C(O)C=CC=CC=CC=CC(C)(O)CCCC(=O)O (racemic) [5(R/S)-methyl-LXB4] here?
A: 37.0%

Q: With CC(=O)Oc1ccccc1C(=O)O [ASA, acetylsalicylic acid, reference compound] as the compound, how does the “inhibition of TNF-a-induced PMN infiltration, local air pouch delivery” value (“inhibition … local air pouch delivery” below) ([3]; 4 h) read?
A: 69%

Q: Which “ATLa2 methyl ester hydrolyzed to the free acid” value [4] does the source give for COC(=O)CCC[C@H](O)[C@H](O)/C=C/C=C/C=C\C=C\[C@H](O)COc1ccc(F)cc1 [ATLa2] here?
A: 100%

Q: And the “inhibition of TNF-a-induced PMN infiltration, i.v. delivery” value ([3]; i.v. tail vein before TNF-a (20 ng/mouse), 4 h)?
A: 85%

Q: What about the “number of neutrophils in tissue lining of the air pouch (histology)” value ([3]; intra-pouch injection or i.v. prior to TNF-a) of the same compound?
A: reduced

Q: What about the “inhibition … local air pouch delivery” value ([3]; 4 h) of the same compound?
A: ~77%

Q: What about the “toxicity to the mice” value ([3]; local or i.v.) of the same compound?
A: no apparent toxicity

Q: And the “remaining / recoverable in mouse whole blood” value [5]?
A: ~100%

Q: And the “change in mean arterial pressure” value ([6]; (24 nmol/mouse) tail vein injection)?
A: no apparent changes; also recorded: no change

Q: And the “relaxation of smooth muscle” value (isolated rat aorta)?
A: 40.0%

Q: What about the “relaxation as % of the level of relaxation caused by Iloprost” value (isolated rat aorta; organ baths) of the same compound?
A: ~40%

Q: With CC#CCC(C)[C@H](O)/C=C/[C@@H]1[C@H]2C/C(=C/CCCC(=O)O)C[C@H]2C[C@H]1O (stereo partly shown) [Iloprost, reference compound] as the compound, how does the “time of maximum mean decrease post-injection” value ([6]; tail vein injection) read?
A: ~50 s

Q: What about the “maximum mean decrease in arterial pressure” value ([6]; tail vein injection, (equimolar to ATLa2)) of the same compound?
A: ~28 mmHg

Q: What about the “relaxation of smooth muscle” value (isolated rat aorta) of the same compound?
A: 42.8%

Q: Which “level of inhibition of LTB4-induced PMN recruitment compared to that of either ATLa1 or ATLa2” value [7] does the source give for CCCCC[C@H](O)/C=C/C=C\C=C\C=C\[C@@H](O)[C@@H](O)CCCC(=O)O [LXA4, 5S,6R,15S-trihydroxyeicosa-7E,9E,11Z,13E-tetraenoic acid] here?
A: less than 25%

Q: Which “inhibition … local air pouch delivery” value ([3]; 4 h) does the source give for C[C@@H]1C[C@H]2[C@@H]3CCC4=CC(=O)C=C[C@]4(C)[C@@]3(F)[C@@H](O)C[C@]2(C)[C@@]1(O)C(=O)CO [dexamethasone, reference compound] here?
A: 61%
